In general, DC50 refers to the midpoint of the concentration-degradation curve.

The structures appear in SMILES notation. Structures can show the parent of a compound that is named as a salt.

Our source for the DC50 values is patent US20240383908A1, “SYNTHESIS AND APPLICATION OF PHOSPHATASE DEGRADER” (HINOVA PHARMACEUTICALS INC., priority 2021, published 2024).

Assay [1] concerns the target T1, SHP2 protein (Homo sapiens, UniProt Q06124).
T1 sequence (Q06124 1-593): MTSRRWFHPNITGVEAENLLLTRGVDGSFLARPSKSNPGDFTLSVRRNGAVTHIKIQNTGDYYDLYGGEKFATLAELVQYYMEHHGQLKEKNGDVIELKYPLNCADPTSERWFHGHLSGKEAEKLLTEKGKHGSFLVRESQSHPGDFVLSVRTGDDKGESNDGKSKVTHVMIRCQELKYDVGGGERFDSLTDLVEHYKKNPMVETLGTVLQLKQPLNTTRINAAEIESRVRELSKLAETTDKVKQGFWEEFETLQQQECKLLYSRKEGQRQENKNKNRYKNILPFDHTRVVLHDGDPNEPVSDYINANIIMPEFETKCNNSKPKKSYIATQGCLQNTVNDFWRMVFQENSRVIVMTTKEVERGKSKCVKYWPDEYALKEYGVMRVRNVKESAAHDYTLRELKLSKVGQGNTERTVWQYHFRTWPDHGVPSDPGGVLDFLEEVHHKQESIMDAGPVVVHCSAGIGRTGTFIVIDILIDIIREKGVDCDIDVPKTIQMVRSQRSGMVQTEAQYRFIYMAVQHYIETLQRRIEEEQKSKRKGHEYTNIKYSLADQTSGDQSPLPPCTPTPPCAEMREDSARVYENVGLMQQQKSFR
In words: Degradation activity on SHP2 protein in NCI-H358 cells (Western blot, DC50). The assay is classed as cell-based. More on the design: endogenous in cells. The note with it: read-out: Degradation activity for differenct cell lines NCI-H358 (DC50). Here is the method:
(1) MV-411 cells were cultured in the cell culture medium, and then well-growing cells were selected and inoculated in a 12-well plate, with 1 mL/well and 1×10^6 cells/well. The plate was incubated overnight in a 5% CO2 cell incubator at 37° C.
(2) 10 mM storage solution of each drug was prepared using dimethylsulfoxide (DMSO). The stock solution was diluted gradually with DMSO before use, and then 1 μL of the compound solution was added to the cell culture well (to ensure that the DMSO concentration in the culture system was […]), so that the final drug concentration is 100 nM, 10 nM, 3 nM, 1 nM, 0.3 nM, and 0.1 nM. Two wells were set for each concentration. The plate was gently shaken and mixed. Additionally, negative control wells (containing an equal amount of DMSO) and positive control wells were included.
(3) After 24 hours of cultivation, the cells were lysed using RIPA cell lysate, and the proteins were extracted. The protein concentration was measured using a BCA assay kit. 5× concentrated protein buffer was loaded, heated at 100° C. for 5 min, and then the sample was stored at −20° C.
(4) For each well, 30 μg of protein was loaded to polyacrylamide gel for electrophoresis.
(5) The protein was transferred from polyacrylamide gel to PVDF membrane, and sealed at room temperature with 5% skimmed milk for 1 h, which was then incubated with the primary antibodies (Anti-SHP2 rabbit mAb and Anti-GAPDH rabbit mAb) at 4° C. overnight. The membrane was washed three times with TBST solution, 10 minutes for each time. After that, the membrane was incubated with the secondary antibodies (horseradish peroxidase labeled goat anti-rabbit IgG) at room temperature for 2 h, and then washed three times with TBST solution, 10 minutes for each time, followed by exposure.
(6) The images were analyzed with Image J grayscale, and the degradation ratio of protein bands in the test group was calculated, based on the negative control group (DMSO) (100%).
(7) Using the Dose-response-inhibition equation in the data processing software GraphPad Prism 8, the DC50 value was obtained (which represents the drug concentration corresponding to 50% degradation of the target protein).
Using similar methods and different cell lines, the degradation activity of the compound according to the present invention on SHP2 protein of different cell lines was tested under suitable culture conditions.
On the technique in general: Immunoblotting shows a protein as a band on a membrane.

In assay [2] the target is T1, SHP2 protein. Description: Degradation activity on SHP2 protein in MIA Paca-2 cells (Western blot, DC50). The assay is classed as cell-based. More on the design: endogenous in cells; host or cells: MIA Paca-2 cells. The note with it: read-out: Degradation activity for differenct cell lines MIA Paca-2 (DC50). The essentials:
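DC50 is the concentration degrading 50% of SHP2 relative to DMSO control. It was derived by fitting Western blot band densitometry (anti-SHP2, GAPDH reference) from cells exposed 24 h to 0.1–100 nM compound in 0.1% DMSO.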

On to `CC1(N)CCN(c2cnc(Sc3cccc(NC(=O)c4ccc(-c5ccc(N6CCN(c7ccc(C(=O)NCc8ccc9c(c8)CN(C8CCC(=O)NC8=O)C9=O)nc7)CC6)cc5)cc4)c3)cn2)CC1` (stereo not drawn) [Compound 343, 5-(4-(4′-((3-(([…])thio)phenyl)carbamoyl)-[1,1′-diphenyl]-4-yl)piperazin-1-yl)-N-((2-(2,6-dioxopiperidin-3-yl)-1-oxoisoindolin-5-yl)methyl)pyridinecarboxamide], for which the DC50 in assay [1] is over 1000 nM; in assay [2] it was under 100 nM.

Consider `CC1(N)CCN(c2cnc(Sc3cccc(NC(=O)c4ccc5c(c4)CC(N4CCN(c6ccc(C(=O)NCc7ccc8c(c7)CN(C7CCC(=O)NC7=O)C8=O)nn6)CC4)C5)c3)cn2)CC1` (stereo not drawn) [Compound 344, […]], for which the DC50 was over 1000 nM in assay [1] and under 100 nM in assay [2].

Consider `CC1(N)CCN(c2cnc(Sc3cccc(NC(=O)c4csc(N5CCC(N6CC=C(c7ccc(C(=O)NCc8ccc9c(c8)CN(C8CCC(=O)NC8=O)C9=O)nn7)CC6)CC5)n4)c3)cn2)CC1` (stereo not drawn) [Compound 357], for which the DC50 in assay [1] and in assay [2] was under 100 nM throughout.

Regarding `CC1(N)CCN(c2cnc(Sc3cccc(NC(=O)c4ccc(N5CCC(N6CC=C(c7ncc(C(=O)NCc8ccc9c(c8)CN(C8CCC(=O)NC8=O)C9=O)cc7Cl)CC6)CC5)cc4)c3)cn2)CC1` (stereo not drawn) [Compound 365], the DC50 is under 100 nM in assay [1] and 100 to 1000 nM in assay [2].

Turning to `CC1(N)CCN(c2cnc(Sc3cccc(NC(=O)c4ccc(N5CCC(N6CC=C(c7ncc(C(=O)NCc8ccc9c(c8)CN(C8CCC(=O)NC8=O)C9=O)cn7)CC6)CC5)cc4)c3)cn2)CC1` (stereo not drawn) [Compound 370], the results for the DC50 in assay [1] and in assay [2] were under 100 nM and 100 to 1000 nM, respectively.

As for `CC1(N)CCN(c2cnc(Sc3cccc(NC(=O)c4ccc(N5CCC(N6CC=C(c7cnc(C(=O)NCc8ccc9c(c8)CN(C8CCC(=O)NC8=O)C9=O)cn7)CC6)CC5)cc4)c3)cn2)CC1` (stereo not drawn) [Compound 371], the DC50 was under 100 nM in assay [1] and 100 to 1000 nM in assay [2].

Turning to `NC1(CO)CCN(c2cnc(Sc3cccc(NC(=O)c4ccc(N5CCC(N6CC=C(c7ccc(C(=O)NCc8ccc9c(c8)CN(C8CCC(=O)NC8=O)C9=O)nn7)CC6)CC5)cc4)c3)cn2)CC1` (stereo not drawn) [Compound 375], the figures for the DC50 in assay [1] and in assay [2] were under 100 nM and over 1000 nM, respectively.

Turning to `COc1cc(C2=CCN(C3CCN(c4ccc(C(=O)Nc5cccc(Sc6cnc(N7CCC(C)(N)CC7)cn6)c5)cc4)CC3)CC2)ccc1C(=O)NCc1ccc2c(c1)CN(C1CCC(=O)NC1=O)C2=O` (stereo not drawn) [Compound 377], the DC50 in assay [1] and in assay [2] was under 100 nM throughout.

Turning to `CC1(N)CCN(c2cnc(Sc3cccc(NC(=O)c4ccc(N5CCC(N6CCN(c7ccc(C(=O)NCc8ccc9c(c8)CN(C8CCC(=O)NC8=O)C9=O)nc7)CC6)CC5)cc4)c3)cn2)CC1` (stereo not drawn) [Compound 395], the DC50 in assay [1] and in assay [2] was under 100 nM each time.

Regarding `CC1(N)CCN(c2cnc(Sc3cccc(NC(=O)c4ccc(N5CCC(N6CCN(c7ccc(C(=O)NCc8ccc9c(c8)CN(C8CCC(=O)NC8=O)C9=O)nc7)CC6)CC5)c(F)c4)c3)cn2)CC1` (stereo not drawn) [Compound 396], the DC50 in assay [1] and in assay [2] was under 100 nM each time.

`CC1(N)CCN(c2cnc(Sc3cccc(NC(=O)c4ccc(N5CCC(N6CCN(c7ccc(C(=O)NCc8ccc9c(c8)CN(C8CCC(=O)NC8=O)C9=O)nn7)CC6)CC5)c(F)c4)c3)cn2)CC1` (stereo not drawn) [Compound 397]: the DC50 in assay [1] and in assay [2] was under 100 nM throughout.

`CC1(N)CCN(c2cnc(Sc3cccc(NC(=O)c4ccc(N5CCC(N6CC=C(c7ccc(C(=O)NCc8ccc9c(c8)CN(C8CCC(=O)NC8=O)C9=O)nc7Cl)CC6)CC5)cc4)c3)cn2)CC1` (stereo not drawn) [Compound 398]: the DC50 in assay [1] and in assay [2] was under 100 nM throughout.
